Where “and” joins values, the source holds several entries; their conditions need not be identical. Equal entries are not always repeated.
What was measured:
tyrosine hydroxylase = experiment: Tyrosine hydroxylase staining and quantification in striatum of 6-OHDA lesioned rats; assay type: in vivo, Long-Evans rats; conditions: 6-OHDA three sites each side, 7 μg per site
Method: Rats received a total of […] 6-OHDA, injected in 3 locations of the striatum on each side. The injections contained a saline solution with 3.5 mg/ml 6-OHDA and 0.05% ascorbate. Anteroposterior, mediolateral and dorsoventral coordinates for the injections were: +1.0, +/−3.0, −5.0; −0.1, +/−3.7, −5.0 and −1.2, +/−4.5 and −5.0 (Winkler et al, Neurobiol. Dis. 10:165 (2002)).
The extent and position of striatal lesions was confirmed by TH immunohistochemistry. For quantification of TH-staining, digital photos of the individual sections were taken with a 16× microscope (Stemi 2000-c, Zeiss) under identical illumination conditions. The range in brightness was practically identical for every photo ranging from no light (inside the microscope) at the outer edge to the brightest non-stained part of each section. Images were converted to grey-scale bitmap format with an 8-bit dynamic range in brightness.

[1] = test system: striatal levels of dopamine; experiment: Tissue content analysis of striatal dopamine and metabolites (HPLC-EC) after AMPT; assay type: in vivo, wild-type C57/BL6J mice
Method: FIGS. 11A-11C. Tissue content analysis confirms that acute pharmacological dopamine depletion in wild-type mice leads to striatal dopamine levels similar to those observed in PD patients. […] Average quantities in depleted animals were reduced for dopamine, DOPAC and HVA to: 4.5 ng, 0.17 ng and 0.41 ng per mg tissue, respectively, compared to 14.4 ng, 0.74 ng and 1.36 ng per mg tissue, for saline injected control animals (**=p<0.005, Mann-Whitney test, n=6 in each group). Tissue content analysis of dopamine and metabolites.
Striatal tissue content of dopamine was assessed using high performance liquid chromatography with electrochemical detection, as previously described. Striata were rapidly dissected, frozen, and stored at −80° C. Later, tissue samples were homogenized in 0.1M HClO4 containing 100 ng/ml 3,4-dihydroxybenzylamine (DHBA) as an internal standard. Homogenates were centrifuged for 10 min at 10,000×g. Supernatants were filtered through 0.22 μm filter and analyzed for levels of dopamine using HPLC-EC. Monoamines and metabolites were separated on a microbore reverse-phase column (C-18, 5 μm, 1×150 mm, Unijet, BAS). The volume of injection was 5 μl.
(§1) The first set of experiments was carried out using an inducible mouse model of PD, first in wild-type animals and then in dopamine-transporter knock-out (DAT-KO) mice (Sotnikova et al, PLoS Biol. 3:e271 (2005)). Through pharmacological inhibition of dopamine synthesis, acute dopamine depletion was induced in both types of animals in order to reliably document the effects of DCS during a severe parkinsonian-like state of akinesia. In agreement with previous experiments, the characteristic behavioral and electrophysiological changes following inhibition of dopamine synthesis was confirmed in these animals (Carlsson, Acta Neurol. Scand. Suppl 51:11 (1972), Costa et al, Neuron. 52:359 (2006), Sotnikova et al, PLoS Biol. 3:e271 (2005)). In patients, the cardinal symptoms of idiopathic PD, rigidity, resting tremor and brady-/hypokinesia, have been reported to be clinically apparent following degeneration of 60-70% of the dopaminergic neurons of the substantia nigra pars compacta, which in turn results in a […] reduction of striatal dopamine levels (Brooks et al, Biol. Psychiatry 59:908 (2006), Lloyd et al, J. Pharmacol. Exp. Ther. 195:453 (1975)). […] Secondly, a pronounced muscle tremor was evident during resting periods, which was reflected in characteristic oscillatory patterns in electromyographic (EMG) recordings obtained from chronically implanted microwires in the nuchal muscles (FIG. 12). This tremor was suppressed during locomotion bouts. […] (FIG. 13A, see also Drouot et al, Neuron 44:769 (2004) and Sakai et al, Brain Res. 633:144 (1994)).

wild-type mice [2] = experiment: Open-field locomotion after acute pharmacological dopamine depletion; assay type: in vivo, wild-type C57/BL6J mice
Method: (§2) Rats were placed in a circular open-field (90 cm diameter) for 70 min (10 min adaptation and 1 h behavioural recording). The animals were then allowed to rest in its home cage for one hour. After that, the animals were reintroduced into the open-field and dorsal column stimulation (DCS) was applied every 10 minutes for 30 seconds. In mice, locomotion was documented both by video recordings and through an automated tracking system based in infra-red beams (Med Associates Inc., VT). Recordings were obtained before and after dopamine-depletion, and DCS was applied as described below.
(§3) The movements of the rats in the open-field were extracted from the digitized video recordings, with approximately 1 mm spatial resolution, with custom designed algorithms implemented in command interpreting software (The MathWorks Inc., MA). For mice, scored locomotion from the infra-red tracking system was binned into 500 ms bins (original resolution 50 ms). For locomotion extraction from video data, single frames with a 500 ms interval were used.
The number of bins used for histograms of locomotion speeds was adjusted according to the maximum speed scored in a single bin in the slowest condition (i.e. 500 mm/s for the rats and 180 mm/s for the mice). The relatively few (<0.3%) events with locomotion components faster than the upper limit found in the other conditions were assigned to the fastest bin. The number of events within each speed interval was summed and the relative change in response to DCS was calculated. A lower threshold just above the quantal step was used in the analysis of histogram distributions, i.e. 10 mm/500 ms for both mouse and rat data.
as §1

wild-type mice [3] = experiment: Catalepsy test (forepaws on bar 3 cm above the ground); assay type: in vivo, wild-type C57/BL6J mice; conditions: after the 6 h depletion period
Method: The first set of experiments was carried out using an inducible mouse model of PD, first in wild-type animals and then in dopamine-transporter knock-out (DAT-KO) mice (Sotnikova et al, PLoS Biol. 3:e271 (2005)). Through pharmacological inhibition of dopamine synthesis, acute dopamine depletion was induced in both types of animals in order to reliably document the effects of DCS during a severe parkinsonian-like state of akinesia. In agreement with previous experiments, the characteristic behavioral and electrophysiological changes following inhibition of dopamine synthesis was confirmed in these animals (Carlsson, Acta Neurol. Scand. Suppl 51:11 (1972), Costa et al, Neuron. 52:359 (2006), Sotnikova et al, PLoS Biol. 3:e271 (2005)). In patients, the cardinal symptoms of idiopathic PD, rigidity, resting tremor and brady-/hypokinesia, have been reported to be clinically apparent following degeneration of 60-70% of the dopaminergic neurons of the substantia nigra pars compacta, which in turn results in a […] reduction of striatal dopamine levels (Brooks et al, Biol. Psychiatry 59:908 (2006), Lloyd et al, J. Pharmacol. Exp. Ther. 195:453 (1975)). […]

corticostriatal circuit = experiment: Corticostriatal LFP oscillations / dopamine spectral index after AMPT injection; assay type: in vivo, C57/J (wild type) male mice; conditions: after AMPT injection 250 mg/kg i.p.
Method: Two C57/J (wild type) male mice where implanted with peripheral nerve cuff electrodes, microwire electrodes arrays in the striatum and motor cortex and one EMG wire in the trapezium muscle. After a week of recovery, a series of experiments were carried out. Individual animals were introduced to the open field activity (OFA) monitor cage, which permitted tracking of the animal's locomotive activity. After 10 minutes, the animal was injected with AMPT (250 mg/kg, i.p.) to produce a partial depletion in dopamine brain levels. The stimulation started 15 minutes after the injection. It was delivered in 2-minute windows, alternated with 2 minutes of rest (no stimulation). The amplitude was fixed at 0.4 mA. This value was selected on the basis that it produced a noticeable effect on the animal (soft scratching of the whiskers pads) at the onset of stimulation but no further signs of discomfort or pain. Sixteen different frequency values delivered in a pseudorandom way (1-130 Hz) were tested.
The key observation in these experiments was that IS at some frequencies could revert this strong neural oscillation pattern to the type of desynchronized firing activity observed during the control period. […] In order to quantify this observation, the ratio between the LFP power in the 2-4 Hz and 0-4 Hz range was used as an indicator of the predominant oscillatory pattern (FIG. 6). […]

[4] = test system: striatal dopamine concentrations; conditions: cited from earlier work
DAT-KO mice [5] = experiment: Minimum L-DOPA dose (alone or with DCS) required to restore locomotion; assay type: in vivo; conditions: AMPT-treated DAT-KO mice
Method: as §2, §3
In order to find the minimum dose of L-DOPA (alone or combined with DCS) required to restore locomotion, a severely dopamine-depleted akinetic animal model was used, namely mice lacking the gene for the presynaptic dopamine membrane transporter (DAT-KO). […]

DAT-KO mice [6] = experiment: LFP spectral index in severely dopamine depleted animals; assay type: in vivo; conditions: last hours of testing period, coinciding with onset of locomotion
Method: FIG. 20. Local field potentials are shifted to higher frequencies as a result of DCS even in severely dopamine depleted animals. Average spectral indices (power ratio: [25-55]/[1.5-25] Hz) calculated for DCS+L-DOPA (black) and L-DOPA (grey) treated animals, respectively. DCS induced spectral changes even at the lowest L-DOPA dose tested (a single 1 mg/kg injection) while the spectral change in the L-DOPA only group occurred during the last hours of the testing period (after more than 20 mg/kg L-DOPA in total) coinciding with onset of locomotion.
Struck by the dramatic functional recovery on the behavioral level, the electrophysiological changes associated with motor improvements were analyzed next. […] The spectral shift was maintained throughout the stimulation period and lasted for ˜50 s following the off-set of stimulation. This indicates a prolonged shift in the activity state of these brain structures, also ruling out any major effects of contamination in the spectrograms from stimulation currents (FIG. 16C). To condense the spectral shift into a single measure, a spectral index was computed by dividing the spectral range analyzed into an upper and lower half and calculating the ratio of the summed power of the frequencies in the two intervals [(25-55 Hz)/(1.5-25 Hz)]. […]

[7] = two i.p. injections of 250 mg/kg, 2 hours apart, measured 4 hours after last injection, n=6

SMILES: NCCc1cc(O)c(O)cc1O [6-OHDA]
- tyrosine hydroxylase staining relative to sham treated controls (tyrosine hydroxylase): ~20% and 21%

SMILES: CC(N)(Cc1ccc(O)cc1)C(=O)O (stereo not drawn) [AMPT, α-methyl-p-tyrosine]
- reduction of striatal dopamine levels ([1]; two i.p. injections (250 mg/kg) during a 6 h period): 69%
- striatal DOPAC tissue content in depleted animals [1, 7]: 0.17 ng per mg tissue
- striatal HVA tissue content in depleted animals [1, 7]: 0.41 ng per mg tissue
- striatal dopamine tissue content in depleted animals ([1]; two i.p. injections of 250 mg/kg, 2 hours apart, measured 4 hours after last injection, n=6, 250 mg/kg): 4.5±2.0 ng per mg tissue and 4.5 ng per mg tissue
- average amount of locomotion as percentage of control values (wild-type mice [2]; depleted animals during testing periods): ~10%
- average locomotion score in open-field (mean±SEM) (wild-type mice [2]; depleted animals, n=14): 0.4±0.02 mm/s
- locomotion score, fast movements, as percentage of non-depleted animals (wild-type mice [2]; fast speed interval): 0.3%
- locomotion score, medium movements, as percentage of non-depleted animals (wild-type mice [2]; medium speed interval): 2.0%
- locomotion score, slow movements, as percentage of non-depleted animals (wild-type mice [2]; slow speed interval): 10.5%
- catalepsy: time unable to remove the forepaws from bar (wild-type mice [3]): at least 30 s
- frequency of strong LFP synchronization after dopamine depletion (corticostriatal circuit): 4 Hz
- dopamine spectral index (LFP power 2-4 Hz / 0-4 Hz) (corticostriatal circuit; basal value around 0.5): ~1
- dopamine levels after AMPT in DAT-KO mice ([4]; 250 mg/kg i.p.): virtually undetectable levels
- duration of severe akinesia, rigidity and tremors ([4]; DAT-KO mice treated with AMPT): up to 16 hours
- striatal dopamine concentration relative to control animals ([4]; DAT-KO mice treated with AMPT): 0.2%

SMILES: N[C@@H](Cc1ccc(O)c(O)c1)C(=O)O [L-DOPA]
- L-DOPA injection dose at which locomotion first occurred (DAT-KO mice [5]; L-DOPA injections every hour with increasing dose): 5 mg/kg
- total L-DOPA dose when locomotion first occurred (DAT-KO mice [5]; cumulative dose of hourly injections): 15 mg
- total L-DOPA dose at which spectral change occurred (DAT-KO mice [6]): more than 20 mg/kg

— patent US9943687B2, “Method of treating parkinson's disease and other movement disorders” (Duke University, priority 2007, dated 2018)
